Results as given in ChEMBL document CHEMBL4043253, “Synthesis of novel vitamin K derivatives with alkylated phenyl groups introduced at the ω-terminal side chain and evaluation of their neural differentiation activities” (Bioorg Med Chem Lett, 2017).
Calls of active or inactive are those of the source. No cut-off for these calls is given here.

System: PC-12
Test: Cytotoxicity against rat PC12 cells by MTT assay
Format: cell-based

| Compound | Activity |
| --- | --- |
| CC1=C(C/C=C(\C)CC/C=C(\C)CC/C=C(\C)Cc2c(C)cc(C)cc2C)C(=O)c2ccccc2C1=O | Non-Toxic |
| CC1=C(C/C=C(\C)CC/C=C(\C)Cc2ccc(C)c(C)c2)C(=O)c2ccccc2C1=O | Non-Toxic |
| CC1=C(C/C=C(\C)CC/C=C(\C)CC/C=C(\C)Cc2cccc(C)c2C)C(=O)c2ccccc2C1=O | Non-Toxic |
| CC1=C(C/C=C(\C)CC/C=C(\C)CC/C=C(\C)Cc2cccc(C(C)(C)C)c2)C(=O)c2ccccc2C1=O | Non-Toxic |
| CC1=C(C/C=C(\C)CC/C=C(\C)Cc2ccc(C)cc2C)C(=O)c2ccccc2C1=O | Non-Toxic |
| CC1=C(C/C=C(\C)CC/C=C(\C)Cc2cc(C)cc(C)c2)C(=O)c2ccccc2C1=O | Non-Toxic |
| CC1=C(C/C=C(\C)CC/C=C(\C)Cc2c(C)cc(C)cc2C)C(=O)c2ccccc2C1=O | Non-Toxic |
| CC1=C(C/C=C(\C)CC/C=C(\C)CC/C=C(\C)Cc2ccc(C)cc2C)C(=O)c2ccccc2C1=O | Non-Toxic |
| CC(C)=CCC/C(C)=C/CC/C(C)=C/CC/C(C)=C/CC1=C(C)C(=O)c2ccccc2C1=O [MENATETRENONE] | Non-Toxic |
| CC1=C(C/C=C(\C)CC/C=C(\C)CC/C=C(\C)Cc2cc(C)cc(C)c2)C(=O)c2ccccc2C1=O | Non-Toxic |
| CC1=C(C/C=C(\C)CC/C=C(\C)CC/C=C(\C)Cc2ccc(C)c(C)c2)C(=O)c2ccccc2C1=O | Non-Toxic |
| CC1=C(C/C=C(\C)CC/C=C(\C)Cc2cccc(C)c2C)C(=O)c2ccccc2C1=O | Non-Toxic |
| CC1=C(C/C=C(\C)CC/C=C(\C)Cc2cccc(C(C)(C)C)c2)C(=O)c2ccccc2C1=O | Non-Toxic |

System: PC-12
Test: Induction of neurite elongation in rat PC12 cells assessed as […] mRNA expression at 1 uM
Format: functional, cell-based

| Compound | Activity |
| --- | --- |
| CC(C)=CCC/C(C)=C/CC/C(C)=C/CC/C(C)=C/CC1=C(C)C(=O)c2ccccc2C1=O [MENATETRENONE] | inactive |

System: Neural stem cell
Test: Induction of neuronal differentiation in C57BL/6J mouse neural stem cells assessed as expression of Map2 at 1 uM administered every 2 days for 4 days by CF594/DAPI immunostaining based fluorescence microscopic microscopic analysis
Format: functional

| Compound | Activity |
| --- | --- |
| CC1=C(C/C=C(\C)CC/C=C(\C)Cc2ccc(C)c(C)c2)C(=O)c2ccccc2C1=O | inactive |
| CC1=C(C/C=C(\C)CC/C=C(\C)CC/C=C(\C)Cc2cccc(C(C)(C)C)c2)C(=O)c2ccccc2C1=O | Active |
| CC1=C(C/C=C(\C)CC/C=C(\C)Cc2cccc(C)c2C)C(=O)c2ccccc2C1=O | inactive |
| CC1=C(C/C=C(\C)CC/C=C(\C)Cc2cccc(C(C)(C)C)c2)C(=O)c2ccccc2C1=O | Active |

System: Neural stem cell
Test: Induction of neuronal differentiation in C57BL/6J mouse neural stem cells assessed as Map2 mRNA expression at 1 uM measured after 4 days by RT-PCR analysis
Format: functional, cell-based

| Compound | Activity |
| --- | --- |
| CC1=C(C/C=C(\C)CC/C=C(\C)Cc2ccc(C)c(C)c2)C(=O)c2ccccc2C1=O | Active |
| CC1=C(C/C=C(\C)CC/C=C(\C)CC/C=C(\C)Cc2cccc(C(C)(C)C)c2)C(=O)c2ccccc2C1=O | Active |
| CC(C)=CCC/C(C)=C/CC/C(C)=C/CC/C(C)=C/CC1=C(C)C(=O)c2ccccc2C1=O [MENATETRENONE] | Active |
| CC1=C(C/C=C(\C)CC/C=C(\C)Cc2cccc(C)c2C)C(=O)c2ccccc2C1=O | Active |
| CC1=C(C/C=C(\C)CC/C=C(\C)Cc2cccc(C(C)(C)C)c2)C(=O)c2ccccc2C1=O | Active |
